According to paper PMC6550177, “Statuses of food-derived glutathione in intestine, blood, and liver of rat” (NPJ Science of Food, 2018):
Entries after “also recorded” stand apart in the source; their conditions may differ. Values belong to the compound of their own block, whether it stands above or below them.

Columns and labels:
[1] = Food-derived glutathione in washed intestine and liver after oral gavage of 13C-labeled compound (LC-MS/MS); details: rat
Method: Rats were acclimatized for a week, divided into four groups, and were given 1 mL of glutathione-1-^13C (50 mg/kg body weight) or NAC-1-^13C (50 mg/kg body weight) solutions using an oral gavage.
Portions of the thoroughly washed intestines and livers were homogenized in the same weight of PBS using a BioMasher (Nippi, Tokyo, Japan). The obtained homogenates were then mixed with the same volumes of 10% (v/v) TCA-4% (v/v) 2-mercaptoethanol and allowed to stand for 30 min at 25°C. The supernatant was collected and used to determine the total amounts of glutathione and related peptides. Another set of intestines and livers were homogenized in the same volume of PBS containing 20 mM NEM and then allowed to stand for 10 min at 25 °C. The homogenate were further diluted with another three fold volumes of PBS without NEM, and mixed with the same volume of 10% (v/v) TCA. […] The precipitate was washed with the same weight of 10% TCA three times, and the protein-bound form of glutathione was extracted with the same weight of 10% TCA-4% 2-mercaptoethanol as described above.
The 5% TCA–2% 2-mercaptoethanol extracts (50 μL) were dried under vacuum to remove excess amounts of 2-mercaptoethanol; thereafter, 20 μL of an alkaline solution was added to neutralize the extracts and they were again dried under vacuum.
With NEM, glutathione disulfide was conjugated with two molecules of AccQs, and the resultant AccQ derivative of glutathione disulfide was subjected to the LC-MS/MS as described above.

[2] = rat
Method: (§1) All animals were treated and cared in accordance with the National Institutes of Health’s guidelines for the use of experimental animals. All experimental procedures were approved by the Animal Care Committee of Kyoto Prefectural University (No. KPU260400-260421). Seven-week-old Wister rats (body weight 200–220 g) were housed in a 12-h light-dark cycle and allowed free access to standard rat chow and water. […] The plasma was prepared by centrifugation at 800×g for 10 min at 4 °C. The liver and small intestines were taken from the rats. The intestines were flushed with about 40 mL of cold PBS to remove its contents. The blood in the liver was purged by infusing cold PBS into the portal vein. Samples were stored at −80 °C until use.
(§2) The plasma (100 μL) was mixed with three fold volumes of ethanol. The supernatant and precipitate obtained were harvested by centrifugation at 14,200×g at 4 °C for 10 min. The supernatant was referred to as the low-molecular-weight fraction of the plasma. Aliquots of the low-molecular-weight fraction (300 μL each) were dried under vacuum, and processed using two methods. Some dried aliquots were treated with 50 μL of 5% TCA-2% 2-mercaptoethanol solution for 30 min and used in determining the total glutathione and related peptides. Free and bound-form glutathione were bound to 2-mercaptoethnol.[6] Other dried aliquots of the fraction (300 μL) were treated with 50 μL of 20 mM NEM in PBS for 10 min. Only free glutathione bound to NEM, as NEM has no reducing activity. The reaction was terminated by adding 50 μL of 5% TCA solution. The NEM-treated fraction was used in determination of the reduced-form of glutathione and glutathione disulfide.
(§3) The ethanol precipitate of the plasma was further washed with 200 μL of 75% (v/v) ethanol twice. The residue was collected by centrifugation at 14,200×g at 4 °C. Protein-bound glutathione and related peptides were liberated from the residue by extracting with 100 μL of 5% TCA-2% 2-mercaptoethanol with occasional agitation for 30 min. The supernatant obtained after centrifugation was used to determine the protein-bound form of glutathione and related peptides.[6]
(§4) The 5% TCA–2% 2-mercaptoethanol extracts (50 μL) were dried under vacuum to remove excess amounts of 2-mercaptoethanol; thereafter, 20 μL of an alkaline solution was added to neutralize the extracts and they were again dried under vacuum. The residues were mixed with 20 μL of 20 mM HCl, 60 μL of the sodium borate buffer provided with the AccQ Tag Ultra Derivatization Kit, and 20 μL of 0.3% (w/v) AccQ acetonitrile solution and heated at 50 °C for 10 min to obtain their AccQ derivatives. Then, the reaction mixtures were diluted with adequate amounts of 5 mM sodium phosphate buffer (pH 7.4) containing 10% (v/v) acetonitrile and filtered using a 0.45-μm filter (Cosmonice filter W, Nacalai Tesque). The filtrates were subjected to LC-MS/MS using a 3200 QTRAP system (AB SCIEX, Framingham, MA) as previously described.[6]
(§5) Without 2-mercaptoethanol, the sulfhydryl group of glutathione was conjugated with NEM in PBS. The NEM-glutathione derivative was directly subjected to LC-MS/MS to determine the reduced-form of glutathione. With NEM, glutathione disulfide was conjugated with two molecules of AccQs, and the resultant AccQ derivative of glutathione disulfide was subjected to the LC-MS/MS as described above. Reduced-form glutathione (2 nmol) was added to the ethanol-soluble fraction of plasma from portal blood.

[3] = test system: peroxisome proliferator-activated receptor gamma coactivator 1-alpha (PGC-1α); details: cited from earlier work
[4] = animals, oral administration; cited from earlier work
[5] = oral administration, vs placebo controls; cited from earlier work
[6] = humans, dietary supplementation; cited from earlier work
in vivo = details: Wister, rat, po, 50 mg/kg, 60 min after ingestion
Method: as §1, §2, §3, §4, §5

[7] = mice, 12 weeks supplementation, 50 mg/kg body weight, preliminary experiment
[8] = oral administration, vs placebo controls; cited from earlier work; remark: listed apart in the source
[9] = patients with non-alcoholic fatty liver disease, oral administration; cited from earlier work

Compound: CC(=O)N[C@@H](CS)[13C](=O)O [NAC, N-acetylcysteine-1-^13C]
Food-derived glutathione in intestines and liver after ingestion of NAC ([1]; oral 50 mg/kg): present | NAC-derived glutathione (and fragment peptides) in blood plasma ([2]; oral 50 mg/kg, within 120 min, 50 mg/kg): not detected; also recorded: no significant amounts

Compound: O=C1O[C@H]([C@@H](O)CO)C(O)=C1O [vitamin C]
Exercise-induced increase of PGC-1α [3]: suppress

Compound: vitamin E
Exercise-induced increase of PGC-1α [3]: suppress

Continued, in another order:

Food-derived Cys-Gly and γ-Glu-Cys in intestines and liver ([1]; in vivo, po): negligible amounts | Food-derived glutathione content in intestine ([1]; in vivo, po, 50 mg/kg): approximately 60 μmol/kg | Food-derived glutathione content in liver ([1]; in vivo, po, 50 mg/kg): ~300 µmol/kg | Food-derived Cys-Gly and γ-Glu-Cys in plasma ([2]; in vivo, po): significant amounts
Compound: N[C@@H](CCC(=O)N[C@@H](CS)[13C](=O)NCC(=O)O)C(=O)O [glutathione-1-^13C, Glutathione-1-^13C]
Status (form) of food-derived glutathione in blood plasma ([2]; in vivo, po, 50 mg/kg): conjugated with proteins and low-molecular-weight thiol compounds

Food-derived Cys-Gly, γ-Glu-Cys and glutathione disulfide in the liver without blood [1]: negligible amounts | Food-derived glutathione as share of total glutathione in the liver ([1]; 120 min after administration at 50 mg/kg): approximately 5% | concentration at 60 min (in vivo; Food-derived glutathione level in low-molecular-weight fraction of blood from hepatic portal vein): ~400 nM | concentration at 60 min (in vivo; Food-derived glutathione level in low-molecular-weight fraction of blood from inferior vena cava): < 100 nM | Food-derived glutathione in protein-bound fraction, plasma from portal vein vs inferior vena cava ([2]; after oral glutathione): insignificantly different
Compound: N[C@@H](CCC(=O)N[C@@H](CS)C(=O)NCC(=O)O)C(=O)O [glutathione, γ-L-glutamyl-L-cysteinyl-glycine]
Liver glutathione level [4]: increase the liver glutathione level | Exercise-induced fatigue [5]: reduce | Protein-bound glutathione in the blood plasma [6]: increase | PGC-1α / mitochondrial biogenesis ([3]; previous animal experiment): enhances mitochondrial biogenesis by increasing | Liver glutathione levels compared to controls [7]: did not significantly increase | Melanin indices on the skin [8]: reduce melanin indices on the skin | Reduced-form glutathione and glutathione disulfide in low-molecular-weight fraction of plasma from portal vein ([2]; after oral glutathione, LC-MS/MS multi-reaction monitoring): no reduced-form glutathione and glutathione disulfide were detected | Plasma alanine aminotransferase and free fatty acid levels [9]: significantly reduce
